pIC50: −log10 of the molar value. Counter-ions that a name gives are not always drawn.
Each compound was assayed against T1, Recombinant human HSD17B13 enzyme (Homo sapiens, UniProt Q7Z5P4) (assay: HSD17b13 NAD(P)H-Glo biochemical assay). Conditions: 50 uM estradiol, 1 mM NAD+, NAD(P)H-Glo luminescence; read-out: HSD17β13 IC50.
T1 sequence (Q7Z5P4 20-300): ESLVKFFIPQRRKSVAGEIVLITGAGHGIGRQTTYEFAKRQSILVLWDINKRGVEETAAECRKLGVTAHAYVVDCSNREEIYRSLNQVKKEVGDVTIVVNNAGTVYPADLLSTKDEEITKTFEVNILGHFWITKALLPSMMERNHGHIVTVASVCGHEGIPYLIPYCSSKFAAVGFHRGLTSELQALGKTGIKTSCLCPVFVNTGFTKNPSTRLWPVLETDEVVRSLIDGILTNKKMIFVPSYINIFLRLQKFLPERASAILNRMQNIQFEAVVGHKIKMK
Description: Example B-1: HSD17b13 NAD(P)H-Glo Biochemical Assay
Recombinant human HSD17B13 enzyme. Substrate: estradiol (Sigma β-Estradiol E8875), 100 mM in DMSO. Cofactor: NAD+ Grade I free acid (Sigma 10127965001), 20 mM in H2O. Assay buffer final concentration: 20 mM Tris pH7.4 with 0.002% Tween-20 and 0.02% BSA. Assay performed in 384 well solid bottom plate (Corning 3570). Enzymatic activity detected by NAD(P)H-Glo™ Detection System (Promega G9062).
Inhibitor compounds were serially diluted in DMSO and then further diluted in assay buffer to a 10× concentration consisting of 1% DMSO.
HSD17b13 enzyme was diluted in 1× assay buffer to the desired enzyme concentration based on the specific activity of the enzyme lot. 20 uL of diluted enzyme was added to each well along with 2.5 uL of 10× inhibitor solution. Assay plate was incubated at RT for 20 minutes, and then 2.5 uL of a 10× substrate/cofactor mix was added to each well for a final concentration of 50 uM estradiol and 1 mM NAD+. Assay plate was incubated at 37° C. for 3 hours. NAD(P)H-Glo™ Detection System reagents were prepared according to manufacturer's specifications, and 25 uL was added to each well. After incubating for 1 hour at RT, luminescence was measured.

SMILES	pIC50
COCCn1nc(-c2cc(C(F)(F)F)c(F)c(O)c2F)c2ccc(N3CCOCC34CC4)nc21 [Compound 9.72, 2,6-Difluoro-3-(1-(2-methoxyethyl)-6-(7-oxa-4-azaspiro[2.5]octan-4-yl)-1H-pyrazolo[3,4-b]pyridin-3-yl)-5-(trifluoromethyl)phenol]	> 7.00
Cn1nc(-c2cc(C(F)(F)F)c(F)c(O)c2F)c2cnc(N3CCOC(C)(C)C3)cc21 [Compound 9.33, 3-(6-(2,2-Dimethylmorpholino)-1-methyl-1H-pyrazolo[4,3-c]pyridin-3-yl)-2,6-difluoro-5-(trifluoromethyl)phenol]	> 7.00
CN(c1cc2c(cn1)c(-c1cc(C(F)(F)F)c(F)c(O)c1F)nn2C)C1CCOC1 (stereo not drawn) [Compound 9.27, 2,6-Difluoro-3-(1-methyl-6-(methyl(tetrahydrofuran-3-yl)amino)-1H-pyrazolo[4,3-c]pyridin-3-yl)-5-(trifluoromethyl)phenol]	6.00 to 7.00
O=C(NC1CCC1)c1ccc2oc(-c3cc(C(F)(F)F)c(F)c(O)c3F)nc2c1 [Compound 1.14, N-Cyclobutyl-2-(2,4-difluoro-3-hydroxy-5-(trifluoromethyl)phenyl)benzo[d]oxa-zole-5-carboxamide]	> 7.00
CCN1CCN(c2cc3c(cn2)c(-c2cc(C(F)(F)F)c(F)c(O)c2F)nn3C)C(=O)C1 [Compound 9.113, 1-(3-(2,4-Difluoro-3-hydroxy-5-(trifluoromethyl)phenyl)-1-methyl-1H-pyrazolo[4,3-c]pyridin-6-yl)-4-ethylpiperazin-2-one]	6.00 to 7.00
Cn1nc(-c2cc(C(F)(F)F)c(F)c(O)c2F)c2cnc(N(CC3CC3)C3CCC3)cc21 [Compound 9.51, 3-(6-(Cyclobutyl(cyclopropylmethyl)amino)-1-methyl-1H-pyrazolo[4,3-c]pyridin-3-yl)-2,6-difluoro-5-(trifluoromethyl)phenol]	> 7.00
Cn1nc(-c2cc(C(F)(F)F)c(F)c(O)c2F)c2cnc(N3CCOCC34CC4)cc21 [Compound 8, 2,6-Difluoro-3-(1-methyl-6-(7-oxa-4-azaspiro[2.5]octan-4-yl)-1H-pyrazolo[4,3-c]pyridin-3-yl)-5-trifluoromethyl phenol]	> 7.00
CS(=O)(=O)N1CCN(c2ncc3c(-c4cc(O)c(F)c(C(F)(F)F)c4)n[nH]c3n2)CC1 [Compound 10, 2-Fluoro-5-(6-(4-(methylsulfonyl)piperazin-1-yl)-1H-pyrazolo[3,4-d]pyrimidin-3-yl)-3-(trifluoromethyl)phenol]	6.00 to 7.00
Cn1nc(-c2cc(C(F)(F)F)c(F)c(O)c2F)c2cnc(N3CC(C)(C)C3)nc21 [Compound 9.06, 3-(6-(3,3-Dimethylazetidin-1-yl)-1-methyl-1H-pyrazolo[3,4-d]pyrimidin-3-yl)-2,6-difluoro-5-(trifluoromethyl)phenol]	> 7.00
Cn1nc(-c2cc(C(F)(F)F)c(F)c(O)c2F)c2cnc(N3C4CCC3COC4)cc21 [Compound 9.20, 3-(6-(3-Oxa-8-azabicyclo [3.2.1]octan-8-yl)-1-methyl-1H-pyrazolo[4,3-c]pyridin-3-yl)-2,6-difluoro-5-(trifluoromethyl)phenol]	> 7.00
Cn1nc(-c2cc(C(F)(F)F)c(F)c(O)c2F)c2cnc(N(C3CCC3)C3CCOCC3)cc21 [Compound 9.29, 3-(6-(Cyclobutyl(tetrahydro-2H-pyran-4-yl)amino)-1-methyl-1H-pyrazolo[4,3-c]pyridin-3-yl)-2,6-difluoro-5-(trifluoromethyl)phenol]	> 7.00
Cn1nc(-c2cc(C(F)(F)F)c(F)c(O)c2F)c2cnc(N3CC4CCC3CC4)cc21 [Compound 9.42, 3-(6-(2-Azabicyclo[2.2.2]octan-2-yl)-1-methyl-1H-pyrazolo[4,3-c]pyridin-3-yl)-2,6-difluoro-5-(trifluoromethyl)phenol]	> 7.00
Cn1nc(-c2cc(C(F)(F)F)c(F)c(O)c2F)c2cnc(N3CCO[C@@H](c4ccccc4)C3)cc21 [Compound 9.135, (S)-2,6-Difluoro-3-(1-methyl-6-(2-phenylmorpholino)-1H-pyrazolo[4,3-c]pyridin-3-yl)-5-(trifluoromethyl)phenol]	> 7.00
COC12CC(CN(c3cc4c(cn3)c(-c3cc(C(F)(F)F)c(F)c(O)c3F)nn4C)C1)C2 [Compound 9.93, 2,6-Difluoro-3-(6-(1-methoxy-3-azabicyclo[3.1.1]heptan-3-yl)-1-methyl-1H-pyrazolo[4,3-c]pyridin-3-yl)-5-(trifluoromethyl)phenol]	> 7.00
Oc1cccc(-c2ccc3oc(-c4ccc(F)c(O)c4)nc3c2)c1 [Compound 3.03, 2-Fluoro-5-(5-(3-hydroxyphenyl)benzo[d]oxazol-2-yl)phenol]	4.52 to 6.00
Cn1nc(-c2cc(C(F)(F)F)c(F)c(O)c2F)c2cnc(N3CCNC4(CCC4)C3)nc21 [Compound 20, 2,6-Difluoro-3-(1-methyl-6-(5,8-diazaspiro[3.5]nonan-8-yl)-1H-pyrazolo[3,4-d]pyrimidin-3-y1)-5-(trifluoromethyl)phenol HCl salt]	> 7.00

Now from value to compound:

pIC50	SMILES
6.00 to 7.00	Oc1cc(-c2n[nH]c3nc(N4CC5(CCOCC5)C4)cnc23)cc(C(F)(F)F)c1F [Compound 10.06, 5-(6-(7-Oxa-2-azaspiro[3.5]nonan-2-yl)-1H-pyrazolo[3,4-b]pyrazin-3-yl)-2-fluoro-3-(trifluoromethyl)phenol]
> 7.00	Cn1nc(-c2cc(C(F)(F)F)c(F)c(O)c2F)c2cnc(N3CCOC(c4ccncc4)C3)nc21 (stereo not drawn) [Compound 18.56, 2,6-Difluoro-3-(1-methyl-6-(2-(pyridin-4-y1)morpholino)-1H-pyrazolo[3,4-d]pyrimidin-3-y1)-5-(trifluoromethyl)phenol]
> 7.00	Cn1nc(-c2cc(C(F)(F)F)c(F)c(O)c2F)c2cnc(N3CCN(C(=O)NC4CCCCC4)CC3)nc21 [Compound 18.125, N-Cyclohexyl-4-(3-(2,4-difluoro-3-hydroxy-5-(trifluoromethyl)phenyl)-1-methyl-1H-pyrazolo[3,4-d]pyrimidin-6-y1)piperazine-1-carboxamide]
4.52 to 6.00	Cn1nc(-c2cc(C(F)(F)F)c(F)c(O)c2F)c2cnc(N3CCOC(c4nnn[nH]4)C3)nc21 (stereo not drawn) [Compound 18.50, 3-(6-(2-(1H-Tetrazol-5-yl)morpholino)-1-methyl-1H-pyrazolo[3,4-d]pyrimidin-3-y1)-2,6-difluoro-5-(trifluoromethyl)phenol]
> 7.00	Cn1nc(-c2cc(C(F)(F)F)c(F)c(O)c2F)c2cnc(N3CCC4(CC3)CNC4=O)nc21 [Compound 18.25, 7-(3-(2,4-Difluoro-3-hydroxy-5-(trifluoromethyl)phenyl)-1-methyl-1H-pyrazolo[3,4-d]pyrimidin-6-yl)-2,7-diazaspiro[3.5]nonan-1-one]
> 7.00	Cn1nc(-c2cc(C(F)(F)F)c(F)c(O)c2F)c2cnc(N3CCS(=O)(=O)C(C)(C)C3)nc21 [Compound 18.54, 4-(3-(2,4-Difluoro-3-hydroxy-5-(trifluoromethyl)phenyl)-1-methyl-1H-pyrazolo[3,4-d]pyrimidin-6-yl)-2,2-dimethylthiomorpholine 1,1-dioxide]
> 7.00	Cn1nc(-c2cc(C(F)(F)F)c(F)c(O)c2F)c2cnc(N3CCOC(C4CC4)C3)nc21 (stereo not drawn) [Compound 18.59, 3-(6-(2-Cyclopropylmorpholino)-1-methyl-1H-pyrazolo[3,4-d]pyrimidin-3-y1)-2,6-difluoro-5-(trifluoromethyl)phenol]
> 7.00	Cn1nc(-c2cc(C(F)(F)F)c(F)c(O)c2F)c2cnc(N3CCC34CCOCC4)nc21 [Compound 18.13, 2,6-Difluoro-3-(1-methy1-6-(7-oxa-1-azaspiro[3.5]nonan-1-y1)-1H-pyrazolo[3,4-d]pyrimidin-3-y1)-5-(trifluoromethyl)phenol]
6.00 to 7.00	CN(C)CC1CN(c2ncc3c(-c4cc(C(F)(F)F)c(F)c(O)c4F)nn(C)c3n2)CCO1 (stereo not drawn) [Compound 18.33, 3-(6-(2-((Dimethylamino)methyl)morpholino)-1-methyl-1H-pyrazolo[3,4-d]pyrimidin-3-y1)-2,6-difluoro-5-(trifluoromethyl)phenol]

Same assay, conditions: at 10 uM compound; read-out: HSD17β13 % inhibition at 10 uM

inhibition at 10 µM [%]	SMILES
35	Cn1nc(-c2cc(C(F)(F)F)c(F)c(O)c2F)c2cnc(N3CCCC34COC4)cc21 [Compound 9.140, 2,6-Difluoro-3-(1-methyl-6-(2-oxa-5-azaspiro[3.4]octan-5-yl)-1H-pyrazolo[4,3-c]pyridin-3-yl)-5-(trifluoromethyl)phenol]

Same assay, conditions: at 30 uM compound; read-out: HSD17β13 % inhibition at 30 uM

inhibition at 30 µM [%]	SMILES
< 20	O=C(NC12CC(C1)C2)c1ccc2oc(-c3c(F)cc(F)c(O)c3F)nc2c1 [Compound 23.01, N-(Bicyclo[1.1.1]pentan-1-y1)-2-(2,4,6-trifluoro-3-hydroxyphenyl)benzo[d]oxazole-5-carboxamide]

— patent publication US20240083861A1, “HSD17B13 INHIBITORS AND USES THEREOF” (FL2022-001, Inc., priority 2020, published 2024)
